23 compounds from US20230040770A1, “HETEROCYCLIC COMPOUND AND USE THEREOF” (TAKEDA PHARMACEUTICAL COMPANY LIMITED, priority 2019, published 2023) can be followed below.

The target in the assay is T1, human orexin type 2 receptor (Homo sapiens, UniProt O43614).
T1 construct: expressed in transfected cells
T1 sequence (O43614 1-444): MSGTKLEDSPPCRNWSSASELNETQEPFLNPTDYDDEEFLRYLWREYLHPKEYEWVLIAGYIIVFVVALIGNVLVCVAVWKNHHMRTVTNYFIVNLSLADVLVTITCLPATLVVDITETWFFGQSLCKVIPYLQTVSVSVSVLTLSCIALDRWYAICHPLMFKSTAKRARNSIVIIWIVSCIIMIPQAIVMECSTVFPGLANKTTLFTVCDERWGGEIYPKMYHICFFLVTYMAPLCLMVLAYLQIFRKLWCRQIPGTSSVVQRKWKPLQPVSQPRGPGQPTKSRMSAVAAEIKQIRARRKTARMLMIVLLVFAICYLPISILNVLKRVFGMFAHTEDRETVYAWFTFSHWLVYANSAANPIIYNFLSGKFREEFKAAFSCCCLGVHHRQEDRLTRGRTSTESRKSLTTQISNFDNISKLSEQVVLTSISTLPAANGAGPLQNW
Briefly: Measurement of orexin type 2 receptor agonist activity (calcium indicator fluorescence, CHO cells forcibly expressing human OX2 receptor). It is filed as cell-based. The note with it: compound at 3 μM; 0% = DMSO, 100% = orexin A (human) 10 nM. The essentials: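 CHO-dhfr cells stably expressing human OX2R, loaded with Fluo-4 AM (30 min 37 °C, then 30 min RT), then given test compound. Calcium fluorescence read by FDSS over ~2 min. Activity (%) scaled from DMSO (0%) to 10 nM final orexin A (100%).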

Regarding `Cc1cccc(-c2cccc(C[C@H]3[C@@H](NS(=O)(=O)C4CC4)[C@@H](F)CN3C(=O)C3CCO3)c2F)c1F` (stereo partly drawn) [Example 490, N-[(2S,3R,4S)-2-[(2,2′-difluoro-3′-methyl[1,1′-biphenyl]-3-yl)methyl]-4-fluoro-1-(oxetane-2-carobnyl)pyrrolidin-3-yl]cyclopropanesulfonamide], the “OX2R agonist activity (3 μM, %)” value was found to be 93%.

Take `CCS(=O)(=O)N[C@@H]1[C@H](Cc2cccc(-c3cccc(C)c3)c2F)N(C(=O)C(C)(C)O)CC1(F)F` [Example 465, N-[(2S,3R)-4,4-difluoro-2-[(2-fluoro-3′-methyl[1,1′-biphenyl]-3-yl)methyl]-1-(2-hydroxy-2-methylpropanoyl)pyrrolidin-3-yl]ethanesulfonamide]: the “OX2R agonist activity (3 μM, %)” value is listed as 106%.

As for `Cc1cccc(-c2cccc(C[C@H]3[C@@H](NS(=O)(=O)C4CC4)[C@@H](F)CN3C(=O)C3CCO3)c2F)c1` (stereo partly drawn) [Example 484, N-[(2S,3R,4S)-4-fluoro-2-[(2-fluoro-3′-methyl[1,1′-biphenyl]-3-yl)methyl]-1-(oxetane-2-carbonyl)pyrrolidin-3-yl]cyclopropanesulfonamide], the “OX2R agonist activity (3 μM, %)” value amounted to 90%.

As to `CN(C)C(=O)N1CC(F)(F)[C@H](NS(=O)(=O)N(C)C)[C@@H]1Cc1cccc(-c2cc(F)cc(F)c2)c1F` [Example 532, (2S,3R)-3-[(dimethylsulfamoyl)amino]-4,4-difluoro-N,N-dimethyl-2-[(2,3′,5′-trifluoro[1,1′-biphenyl]-3-yl)methyl]pyrrolidine-1-carboxamide], the “OX2R agonist activity (3 μM, %)” value was 96%.

Take `O=C(C1CCO1)N1C[C@H](F)[C@H](NS(=O)(=O)C2CC2)[C@@H]1Cc1cccc(-c2cccc(F)c2F)c1F` (stereo partly drawn) [Example 494, N-{(2S,3R,4S)-4-fluoro-1-(oxetane-2-carbonyl)-2-[(2,2′,3′-trifluoro[1,1′-biphenyl]-3-yl)methyl]pyrrolidin-3-yl}cyclopropanesulfonamide]: the “OX2R agonist activity (3 μM, %)” value is 96%.

As to `O=C(C1CCO1)N1C[C@H](F)[C@H](NS(=O)(=O)C2CC2)[C@@H]1Cc1cccc(-c2cc(F)cc(F)c2)c1F` (stereo partly drawn) [Example 493, N-{(2S,3R,4S)-4-fluoro-1-(oxetane-2-carbonyl)-2-[(2,3′,5′-trifluoro[1,1′-biphenyl]-3-yl)methyl]pyrrolidin-3-yl}cyclopropanesulfonamide], the “OX2R agonist activity (3 μM, %)” value is reported as 95%.

For the compound `CCS(=O)(=O)N[C@@H]1[C@H](Cc2cccc(-c3cccc(C(F)F)c3)c2F)N(C(=O)C2CCO2)CC1(F)F` (stereo partly drawn) [Example 504, N-[(S,3R)-2-{[3′-(difluoromethyl)-2-fluoro[1,1′-biphenyl]-3-yl]methyl}-4,4-difluoro-1-(oxetane-2-carbonyl)pyrrolidin-3-yl]ethanesulfonamide], the “OX2R agonist activity (3 μM, %)” value is on record as 90%.

Regarding `CCS(=O)(=O)N[C@@H]1[C@H](Cc2cccc(-c3cccc(Cl)c3F)c2F)N(C(=O)C2CC2)CC1(F)F` [Example 249, N-[(2S,3R)-2-[(3′-chloro-2,2′-difluoro[1,1′-biphenyl]-3-yl)methyl]-1-(cyclopropanecarbonyl)-4,4-difluoropyrrolidin-3-yl]ethanesulfonamide], the “OX2R agonist activity (3 μM, %)” value worked out at 90%.

Take `CCS(=O)(=O)N[C@@H]1[C@H](Cc2cccc(-c3cccc(F)c3)c2F)N(C(=O)C(C)(C)O)CC1(F)F` [Example 8, N-[(2S,3R)-2-[(2,3′-difluoro[1,1′-biphenyl]-3-yl)methyl]-4,4-difluoro-1-(2-hydroxy-2-methylpropanoyl)pyrrolidin-3-yl]ethanesulfonamide]: the “OX2R agonist activity (3 μM, %)” value is listed as 99%.

Regarding `O=C(C1CCO1)N1C[C@H](F)[C@H](NS(=O)(=O)C2CC2)[C@@H]1Cc1cccc(-c2ccccc2F)c1F` (stereo partly drawn) [Example 483, N-[(2S,3R,4S)-2-[(2,2′-difluroo[1,1′-biphenyl]-3-yl)methyl]-4-fluoro-1-(oxetane-2-carbonyl)pyrrolidin-3-yl]cyclopropanesulfonamide], the “OX2R agonist activity (3 μM, %)” value is given as 108%.

On to `CS(=O)(=O)N[C@H]1[C@@H](F)CN(C(=O)C2CCO2)[C@H]1Cc1cccc(-c2cccc(F)c2)c1F` (stereo partly drawn) [Example 323, N-[(2S,3R,4S)-2-[(2,3′-difluoro[1,1′-biphenyl]-3-yl)methyl]-4-fluoro-1-(oxetane-2-carbonyl)pyrrolidin-3-yl]methanesulfonamide], for which the “OX2R agonist activity (3 μM, %)” value came to 92%.

On to `CCS(=O)(=O)N[C@@H]1[C@H](Cc2cccc(-c3cccc(C)c3)c2F)N(C(=O)N2CCC2)CC1(F)F` [Example 285, N-{(2S,3R)-1-(azetidine-1-carbonyl)-4,4-difluoro-2-[(2-fluoro-3′-methyl[1,1′-biphenyl]-3-yl)methyl]pyrrolidin-3-yl}ethanesulfonamdie], for which the “OX2R agonist activity (3 μM, %)” value is 98%.

Turning to `CCS(=O)(=O)N[C@@H]1[C@H](Cc2cccc(-c3cccc(F)c3)c2)N(C(=O)[C@H]2CCCO2)CC1(F)F` [Example 88, N-{(2S,3R)-4,4-difluoro-2-[(3′-fluoro[1,1′-biphenyl]-3-yl)methyl]-1-[(2R)-oxolane-2-carbonyl]pyrrolidin-3-yl}ethanesulfonamide], the “OX2R agonist activity (3 μM, %)” value worked out at 98%.

For the compound `CN(C)C(=O)N1CC(F)(F)[C@H](NS(=O)(=O)N(C)C)[C@@H]1Cc1cccc(-c2ccccc2)c1F` [Example 138, (2S,3R)-3-[(dimethylsulfamoyl)amino]-4,4-difluoro-2-[(2-fluoro[1,1′-biphenyl]-3-yl)methyl]-N,N-dimethylpyrrolidine-1-carboxamide], the “OX2R agonist activity (3 μM, %)” value was determined as 97%.

`CCS(=O)(=O)N[C@@H]1[C@H](Cc2cccc(-c3cc(C)cc(F)c3)c2F)N(C(=O)C2(O)CCC2)CC1(F)F` [Example 394, N-[(2S,3R)-2-[(2,3′-difluoro-5′-methyl[1,1′-biphenyl]-3-yl)methyl]-4,4-difluoro-1-(1-hydroxycyclobutane-1-carbonyl)pyrrolidin-3-yl]ethanesulfonamide]: the “OX2R agonist activity (3 μM, %)” value was 86%.

For the compound `CCS(=O)(=O)N[C@H]1[C@@H](F)CN(C(=O)C23CC(C2)C3)[C@H]1Cc1cccc(-c2ccccc2)c1F` [Example 308, N-{(2S,3R,4S)-1-(bicyclo[1.1.1]pentane-1-carbonyl)-4-fluoro-2-[(2-fluoro[1,1′-biphenyl]-3-yl)methyl]pyrrolidin-3-yl}ethanesulfonamide], the “OX2R agonist activity (3 μM, %)” value worked out at 94%.

As to `CCS(=O)(=O)N[C@H]1[C@@H](F)CN(C(=O)C2CCO2)[C@H]1Cc1cccc(-c2cc(F)cc(F)c2)c1F` (stereo partly drawn) [Example 304, N-{(2S,3R,4S)-4-fluoro-1-(oxetane-2-carbonyl)-2-[(2,3′,5′-trifluoro[1,1′-biphenyl]-3-yl)methyl]pyrrolidin-3-yl}ethanesulfonamide], the “OX2R agonist activity (3 μM, %)” value is on record as 99%.

With `CCS(=O)(=O)N[C@@H]1[C@H](Cc2cccc(-c3cccc(F)c3F)c2F)N(C(=O)[C@H]2CCCO2)CC1(F)F` [Example 455, N-{(2S,3R)-4,4-difluoro-1-[(2R)-oxolane-2-carbonyl]-2-[(2,2′,3′-trifluoro[1,1′-biphenyl]-3-yl)methyl]pyrrolidin-3-yl}ethanesulfonamide], the “OX2R agonist activity (3 μM, %)” value is 85%.

As for `Cc1cccc(-c2cccc(C[C@H]3[C@@H](NS(=O)(=O)N(C)C)C(F)(F)CN3C(=O)[C@H]3CCO3)c2F)c1F` [Example 539, N′-{(2S,3R)-2-[(2,2′-difluoro-3′-methyl[1,1′-biphenyl]-3-yl)methyl]-4,4-difluoro-1-[(2R)-oxetane-2-carbonyl]pyrrolidin-3-yl}-N,N-dimethylsulfuric diamide], the “OX2R agonist activity (3 μM, %)” value worked out at 101%.

For the compound `CCS(=O)(=O)N[C@H]1[C@@H](F)CN(C(=O)C2CC2)[C@H]1Cc1cccc(-c2cccc(Cl)c2)c1F` [Example 516, N-[(2S,3R,4S)-2-[(3′-chloro-2-fluoro[1,1′-biphenyl]-3-yl)methyl]-1-(cyclopropanecarbonyl)-4-fluoropyrrolidin-3-yl]ethanesulfonamide], the “OX2R agonist activity (3 μM, %)” value was found to be 102%.

With `CC(C)(O)C(=O)N1C[C@H](F)[C@H](NS(=O)(=O)C2CC2)[C@@H]1Cc1cccc(-c2cccc(F)c2F)c1F` [Example 371, N-{(2S,3R,4S)-4-fluoro-1-(2-hydroxy-2-methylpropanoyl)-2-[(2,2′,3′-trifluoro[1,1′-biphenyl]-3-yl)methyl]pyrrolidin-3-yl}cyclopropanesulfonamide], the “OX2R agonist activity (3 μM, %)” value stood at 94%.

Consider `CS(=O)(=O)N[C@@H]1[C@H](Cc2cccc(-c3cccc(F)c3)c2F)N(C(=O)[C@H]2CCO2)CC1(F)F` [Example 81, N-[(2S,3R)-2-[(2,3′-difluoro[1,1′-biphenyl]-3-yl)methyl]-4,4-difluoro-1-((2R)-oxetane-2-carbonyl)pyrrolidin-3-yl]methanesulfonamide], for which the “OX2R agonist activity (3 μM, %)” value stood at 95%.

For the compound `CCS(=O)(=O)N[C@@H]1[C@H](Cc2cccc(-c3cccc(C(F)F)c3)c2F)N(C(=O)C(C)C)CC1(F)F` [Example 507, N-[(2S,3R)-2-{[3′-(difluoromethyl)-2-fluoro[1,1′-biphenyl]-3-yl]methyl}-4,4-difluoro-1-(2-methylpropanoyl)pyrrolidin-3-yl]ethanesulfonamide], the “OX2R agonist activity (3 μM, %)” value is given as 97%.
